Organism: Rattus norvegicus
Assay: Open TG-GATES - Regimen: Single
Assay type: toxicity, organism-based, Sprague-Dawley
Set-up: regimen Single, gender Male, age 6 weeks
Settings: in vivo, po, route gavage; for gamma-GTP / ALP / ALT / AST / BUN / CRE / Ca / Cl / DBIL / GLC / IP / K / LDH / Na / PL / RALB / TBIL / TC / TG / TP: tissue Plasma; for APTT / Bas / Eos / Fbg / Hb / Ht / Lym / MCH / MCHC / MCV / Mono / Neu / PT / Plat / RBC / Ret: tissue Blood; for KIDNEY_L / KIDNEY_R / KIDNEY_TOTAL: tissue Kidney; for LIVER: tissue Liver
[1] = 100 mg/kg, 24 h, dose level Low

Work on COc1ccc2[nH]c([S+]([O-])Cc3ncc(C)c(OC)c3C)nc2c1 (centres undefined) [OMEPRAZOLE] yielded a gamma-GTP (0 mg/kg, 24 h, dose level Control) of 1.4 IU/L, a TERMINAL_BW (100 mg/kg, 3 h, dose level Low) of 221.4 g and an APTT (100 mg/kg, 3 h, dose level Low) of 18.4 s. It also gave a Bas (100 mg/kg, 3 h, dose level Low) of 0%, an Eos (100 mg/kg, 3 h, dose level Low) of 1.2% and a Fbg (100 mg/kg, 3 h, dose level Low) of 209.8 mg/dL. It also gave a Hb (100 mg/kg, 3 h, dose level Low) of 12.8 g/dL, a Ht (100 mg/kg, 3 h, dose level Low) of 37.6% and a Lym (100 mg/kg, 3 h, dose level Low) of 77.2%. It also gave an MCH (100 mg/kg, 3 h, dose level Low) of 21.2 pg, an MCHC (100 mg/kg, 3 h, dose level Low) of 34.1% and an MCV (100 mg/kg, 3 h, dose level Low) of 62.2 fL. The Mono (100 mg/kg, 3 h, dose level Low) was 3.4%, the Neu (100 mg/kg, 3 h, dose level Low) was 18% and the PT (100 mg/kg, 3 h, dose level Low) was 12.6 s. For the same compound, the Plat (100 mg/kg, 3 h, dose level Low) was 122.2 x10_4/uL, the RBC (100 mg/kg, 3 h, dose level Low) was 603.6 x10_4/ul and the Ret (100 mg/kg, 3 h, dose level Low) was 6.9%. It also gave a KIDNEY_L (100 mg/kg, 3 h, dose level Low) of 1 g, a KIDNEY_R (100 mg/kg, 3 h, dose level Low) of 1 g and a KIDNEY_TOTAL (100 mg/kg, 3 h, dose level Low) of 2 g. For the same compound, the LIVER (100 mg/kg, 3 h, dose level Low) was 10.2 g, the ALP (100 mg/kg, 3 h, dose level Low) was 983 IU/L and the ALT (100 mg/kg, 3 h, dose level Low) was 33.8 IU/L. For the same compound, the AST (100 mg/kg, 3 h, dose level Low) was 73.6 IU/L, the BUN (100 mg/kg, 3 h, dose level Low) was 11.6 mg/dL and the CRE (100 mg/kg, 3 h, dose level Low) was 0.4 mg/dL. The Ca (100 mg/kg, 3 h, dose level Low) was 10.6 mg/dL, the Cl (100 mg/kg, 3 h, dose level Low) was 100.6 meq/L and the DBIL (100 mg/kg, 3 h, dose level Low) was 0.078 mg/dL. The GLC (100 mg/kg, 3 h, dose level Low) was 201.4 mg/dL, the IP (100 mg/kg, 3 h, dose level Low) was 9.1 mg/dL and the K (100 mg/kg, 3 h, dose level Low) was 4 meq/L. The LDH (100 mg/kg, 3 h, dose level Low) was 180.6 IU/L, the Na (100 mg/kg, 3 h, dose level Low) was 140.2 meq/L and the PL (100 mg/kg, 3 h, dose level Low) was 144.8 mg/dL. The RALB (100 mg/kg, 3 h, dose level Low) was 3.3 g/dL, the TBIL (100 mg/kg, 3 h, dose level Low) was 0.1 mg/dL and the TC (100 mg/kg, 3 h, dose level Low) was 74.2 mg/dL. For the same compound, the TG (100 mg/kg, 3 h, dose level Low) was 86.6 mg/dL, the TP (100 mg/kg, 3 h, dose level Low) was 5.4 g/dL and the gamma-GTP (100 mg/kg, 3 h, dose level Low) was 0.8 IU/L. It also gave a TERMINAL_BW (100 mg/kg, 6 h, dose level Low) of 217.8 g, an APTT (100 mg/kg, 6 h, dose level Low) of 19.2 s and a Bas (100 mg/kg, 6 h, dose level Low) of 0%. For the same compound, the Eos (100 mg/kg, 6 h, dose level Low) was 1%, the Fbg (100 mg/kg, 6 h, dose level Low) was 217 mg/dL and the Hb (100 mg/kg, 6 h, dose level Low) was 13.2 g/dL. For the same compound, the Ht (100 mg/kg, 6 h, dose level Low) was 38.6%, the Lym (100 mg/kg, 6 h, dose level Low) was 76% and the MCH (100 mg/kg, 6 h, dose level Low) was 21.1 pg. For the same compound, the MCHC (100 mg/kg, 6 h, dose level Low) was 34.2%, the MCV (100 mg/kg, 6 h, dose level Low) was 61.7 fL and the Mono (100 mg/kg, 6 h, dose level Low) was 4%. For the same compound, the Neu (100 mg/kg, 6 h, dose level Low) was 18.8%, the PT (100 mg/kg, 6 h, dose level Low) was 12.9 s and the Plat (100 mg/kg, 6 h, dose level Low) was 114.2 x10_4/uL. For the same compound, the RBC (100 mg/kg, 6 h, dose level Low) was 626.4 x10_4/ul, the Ret (100 mg/kg, 6 h, dose level Low) was 6.5% and the KIDNEY_L (100 mg/kg, 6 h, dose level Low) was 1 g. For the same compound, the KIDNEY_R (100 mg/kg, 6 h, dose level Low) was 1 g, the KIDNEY_TOTAL (100 mg/kg, 6 h, dose level Low) was 2 g and the LIVER (100 mg/kg, 6 h, dose level Low) was 10.1 g. The ALP (100 mg/kg, 6 h, dose level Low) was 849 IU/L, the ALT (100 mg/kg, 6 h, dose level Low) was 32 IU/L and the AST (100 mg/kg, 6 h, dose level Low) was 65 IU/L. For the same compound, the BUN (100 mg/kg, 6 h, dose level Low) was 9.4 mg/dL, the CRE (100 mg/kg, 6 h, dose level Low) was 0.4 mg/dL and the Ca (100 mg/kg, 6 h, dose level Low) was 10.6 mg/dL. The Cl (100 mg/kg, 6 h, dose level Low) was 102.4 meq/L, the DBIL (100 mg/kg, 6 h, dose level Low) was 0.074 mg/dL and the GLC (100 mg/kg, 6 h, dose level Low) was 197.8 mg/dL. It also gave an IP (100 mg/kg, 6 h, dose level Low) of 9.4 mg/dL, a K (100 mg/kg, 6 h, dose level Low) of 4 meq/L and an LDH (100 mg/kg, 6 h, dose level Low) of 219.6 IU/L. It also gave a Na (100 mg/kg, 6 h, dose level Low) of 141 meq/L, a PL (100 mg/kg, 6 h, dose level Low) of 159.6 mg/dL and an RALB (100 mg/kg, 6 h, dose level Low) of 3.3 g/dL. It also gave a TBIL (100 mg/kg, 6 h, dose level Low) of 0.1 mg/dL, a TC (100 mg/kg, 6 h, dose level Low) of 86.2 mg/dL and a TG (100 mg/kg, 6 h, dose level Low) of 83.4 mg/dL. For the same compound, the TP (100 mg/kg, 6 h, dose level Low) was 5.4 g/dL, the gamma-GTP (100 mg/kg, 6 h, dose level Low) was 1 IU/L and the TERMINAL_BW (100 mg/kg, 9 h, dose level Low) was 217.8 g. For the same compound, the APTT (100 mg/kg, 9 h, dose level Low) was 20.7 s, the Bas (100 mg/kg, 9 h, dose level Low) was 0% and the Eos (100 mg/kg, 9 h, dose level Low) was 0.8%. It also gave a Fbg (100 mg/kg, 9 h, dose level Low) of 217.6 mg/dL, a Hb (100 mg/kg, 9 h, dose level Low) of 12.9 g/dL and a Ht (100 mg/kg, 9 h, dose level Low) of 37.5%. For the same compound, the Lym (100 mg/kg, 9 h, dose level Low) was 76.8%, the MCH (100 mg/kg, 9 h, dose level Low) was 20.9 pg and the MCHC (100 mg/kg, 9 h, dose level Low) was 34.5%. It also gave an MCV (100 mg/kg, 9 h, dose level Low) of 60.6 fL, a Mono (100 mg/kg, 9 h, dose level Low) of 3.4% and a Neu (100 mg/kg, 9 h, dose level Low) of 18.4%. The PT (100 mg/kg, 9 h, dose level Low) was 12.8 s, the Plat (100 mg/kg, 9 h, dose level Low) was 130.5 x10_4/uL and the RBC (100 mg/kg, 9 h, dose level Low) was 620.2 x10_4/ul. The Ret (100 mg/kg, 9 h, dose level Low) was 6.8%, the KIDNEY_L (100 mg/kg, 9 h, dose level Low) was 1 g and the KIDNEY_R (100 mg/kg, 9 h, dose level Low) was 1 g. The KIDNEY_TOTAL (100 mg/kg, 9 h, dose level Low) was 2.1 g, the LIVER (100 mg/kg, 9 h, dose level Low) was 9.7 g and the ALP (100 mg/kg, 9 h, dose level Low) was 826.2 IU/L. The ALT (100 mg/kg, 9 h, dose level Low) was 28.8 IU/L, the AST (100 mg/kg, 9 h, dose level Low) was 56.8 IU/L and the BUN (100 mg/kg, 9 h, dose level Low) was 9 mg/dL. It also gave a CRE (100 mg/kg, 9 h, dose level Low) of 0.3 mg/dL, a Ca (100 mg/kg, 9 h, dose level Low) of 10.3 mg/dL and a Cl (100 mg/kg, 9 h, dose level Low) of 101 meq/L. For the same compound, the DBIL (100 mg/kg, 9 h, dose level Low) was 0.066 mg/dL, the GLC (100 mg/kg, 9 h, dose level Low) was 197.4 mg/dL and the IP (100 mg/kg, 9 h, dose level Low) was 10.1 mg/dL. For the same compound, the K (100 mg/kg, 9 h, dose level Low) was 4 meq/L, the LDH (100 mg/kg, 9 h, dose level Low) was 171.6 IU/L and the Na (100 mg/kg, 9 h, dose level Low) was 140 meq/L. It also gave a PL (100 mg/kg, 9 h, dose level Low) of 135.8 mg/dL, an RALB (100 mg/kg, 9 h, dose level Low) of 3.3 g/dL and a TBIL (100 mg/kg, 9 h, dose level Low) of 0.1 mg/dL. It also gave a TC (100 mg/kg, 9 h, dose level Low) of 71.2 mg/dL, a TG (100 mg/kg, 9 h, dose level Low) of 68.6 mg/dL and a TP (100 mg/kg, 9 h, dose level Low) of 5.4 g/dL. It also gave a gamma-GTP (100 mg/kg, 9 h, dose level Low) of 1 IU/L, a TERMINAL_BW [1] of 234.1 g and an APTT [1] of 19.3 s. The Bas [1] was 0%, the Eos [1] was 1% and the Fbg [1] was 216.2 mg/dL. For the same compound, the Hb [1] was 12.8 g/dL, the Ht [1] was 37.6% and the Lym [1] was 84.4%. For the same compound, the MCH [1] was 21.2 pg, the MCHC [1] was 34% and the MCV [1] was 62.2 fL. For the same compound, the Mono [1] was 2.4%, the Neu [1] was 12% and the PT [1] was 12.6 s. For the same compound, the Plat [1] was 130.1 x10_4/uL, the RBC [1] was 604.8 x10_4/ul and the Ret [1] was 6.9%. For the same compound, the KIDNEY_L [1] was 1 g, the KIDNEY_R [1] was 1.1 g and the KIDNEY_TOTAL [1] was 2.1 g. It also gave an LIVER [1] of 11.2 g, an ALP [1] of 851.2 IU/L and an ALT [1] of 28.4 IU/L. The AST [1] was 57.8 IU/L, the BUN [1] was 15.8 mg/dL and the CRE [1] was 0.4 mg/dL. It also gave a Ca [1] of 10.6 mg/dL, a Cl [1] of 101 meq/L and a DBIL [1] of 0.092 mg/dL. For the same compound, the GLC [1] was 209.4 mg/dL, the IP [1] was 9.3 mg/dL and the K [1] was 4.4 meq/L. It also gave an LDH [1] of 195.8 IU/L, a Na [1] of 140.2 meq/L and a PL [1] of 145.4 mg/dL. It also gave an RALB [1] of 3.2 g/dL, a TBIL [1] of 0.1 mg/dL and a TC [1] of 77.8 mg/dL. For the same compound, the TG [1] was 89.8 mg/dL and the TP [1] was 5.3 g/dL.

Source: ChEMBL document CHEMBL3885861, “Open TG-GATES”
